# Biological target: human S1P1 receptor (Homo sapiens, UniProt P21453)
# Test: GTPγS assay to determine EC50 values
# Assay type: biochemical
# Conditions: 35S-GTPγS binding, membrane preparations of CHO cells expressing recombinant human S1P1 receptor
# Description: GTPγS Assay to Determine EC50 Values
# GTPγS binding assays are performed in 96 well microtiter plates (Nunc, 442587) in a final volume of 200 μl, using membrane preparations of CHO cells expressing recombinant human S1P1 receptor. Assay conditions are 20 mM Hepes (Fluka, 54461), 100 mM NaCl (Fluka, 71378), 5 mM MgCl2 (Fluka, 63064), 0.1% BSA (Calbiochem, 126609), 1 μM GDP (Sigma, G-7127), 2.5% DMSO (Fluka, 41644), 50 pM ^35S-GTPγS (Amersham Biosciences, SJ1320). The pH is 7.4. Test compounds are dissolved and diluted in 100% DMSO and pre-incubated at rt for 30 min in 150 μl of the above assay buffer, in the absence of ^35S-GTPγS. After addition of 50 μl of ^35S-GTPγS, the assay is incubated for 1 h at rt. The assay is terminated by transfer of the reaction mixture to a Multiscreen plate (Millipore, MAHFC1H60) using a cell harvester from Packard Biosciences, and the plates are washed with ice-cold 10 mM Na2HPO4/NaH2PO4 (70%/30%), dried, sealed at the bottom and, after addition of 25 μl MicroScint20 (Packard Biosciences, order# 6013621), sealed on the top. Membrane-bound ^35S-GTPγS is measured with a TopCount from Packard Biosciences.
# EC50 is the concentration of agonist inducing 50% of the maximal specific ^35S-GTPγS binding. Specific binding is determined by subtracting non-specific binding from maximal binding. Maximal binding is the amount of cpm bound to the Multiscreen plate in the presence of 10 μM of S1P. Non-specific binding is the amount of binding in the absence of an agonist in the assay.
# Chain of human S1P1 receptor (P21453 whole entry): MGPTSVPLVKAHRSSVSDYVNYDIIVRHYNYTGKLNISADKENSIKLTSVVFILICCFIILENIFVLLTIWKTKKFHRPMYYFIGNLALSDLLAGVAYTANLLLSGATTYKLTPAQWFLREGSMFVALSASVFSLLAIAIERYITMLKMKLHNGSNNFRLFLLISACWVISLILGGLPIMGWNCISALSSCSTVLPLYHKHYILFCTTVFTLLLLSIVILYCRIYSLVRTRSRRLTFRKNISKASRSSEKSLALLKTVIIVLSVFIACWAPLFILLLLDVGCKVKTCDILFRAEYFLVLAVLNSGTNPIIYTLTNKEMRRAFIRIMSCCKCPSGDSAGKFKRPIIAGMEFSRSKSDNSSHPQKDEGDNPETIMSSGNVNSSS
row,EC50,SMILES
1,> 10 µM,COc1nc(C)cc(-c2nc(-c3cc(C)nc(C)c3)no2)n1 [Example 58]
2,> 10 µM,CCOc1nc(C)cc(-c2nc(-c3cc(C)nc(N(C)C)c3)no2)n1 [Example 70]
3,> 10 µM,CCCOc1nc(C)cc(-c2nc(-c3cc(C)nc(N(C)CC)c3)no2)n1 [Example 78]
4,> 10 µM,COc1nc(C)cc(-c2noc(-c3cc(C)nc(C)c3)n2)n1 [Example 180]
5,> 10 µM,CCc1cc(-c2nc(-c3cc(C)nc(NCC(C)C)n3)no2)cnc1N(C)C(C)C [Example 224]
6,> 10 µM,CCCN(C)c1nc(C)cc(-c2noc(-c3cnc(N(C)C(C)C)c(CC)c3)n2)n1 [Example 227]
7,> 10 µM,CCc1cc(-c2nc(-c3cc(C)nc(N(C)CC(C)C)n3)no2)cnc1N(C)C(C)C [Example 229]
8,> 10 µM,CCCN(CC)c1nc(C)cc(-c2noc(-c3cnc(N(C)C(C)C)c(CC)c3)n2)n1 [Example 231]
9,> 10 µM,CCc1cc(-c2nc(-c3cc(C)nc(N(CC)C(C)C)n3)no2)cnc1N(C)C(C)C [Example 232]
10,> 10 µM,CCc1cc(-c2nc(-c3cc(C)nc(OCC(C)C)n3)no2)cnc1N(C)C(C)C [Example 237]
11,> 10 µM,CCCNc1nc(C)cc(-c2noc(-c3cc(C)cc(CC(C)C)n3)n2)n1 [Example 240]
12,> 10 µM,Cc1cc(CC(C)C)nc(-c2nc(-c3cc(C)nc(NC(C)C)n3)no2)c1 [Example 241]
13,> 10 µM,Cc1cc(CC(C)C)nc(-c2nc(-c3cc(C)nc(NCC(C)C)n3)no2)c1 [Example 242]
14,> 10 µM,Cc1cc(CC(C)C)nc(-c2nc(-c3cc(C)nc(N(C)C(C)C)n3)no2)c1 [Example 246]
15,> 10 µM,Cc1cc(CC(C)C)nc(-c2nc(-c3cc(C)nc(N(C)CC(C)C)n3)no2)c1 [Example 247]
16,> 10 µM,CCN(CC)c1nc(C)cc(-c2noc(-c3cc(C)cc(CC(C)C)n3)n2)n1 [Example 248]
17,> 10 µM,CCCN(CC)c1nc(C)cc(-c2noc(-c3cc(C)cc(CC(C)C)n3)n2)n1 [Example 249]
18,> 10 µM,CCN(c1nc(C)cc(-c2noc(-c3cc(C)cc(CC(C)C)n3)n2)n1)C(C)C [Example 250]
19,> 10 µM,Cc1cc(CC(C)C)nc(-c2nc(-c3cc(C)nc(OC(C)C)n3)no2)c1 [Example 254]
20,> 10 µM,Cc1cc(CC(C)C)nc(-c2nc(-c3cc(C)nc(OCC(C)C)n3)no2)c1 [Example 255]

# Same assay, conditions: 35S-GTPγS binding, membrane preparations of CHO cells expressing recombinant human S1P1 receptor; agonistic activity
row,EC50,SMILES
1,0.021 µM,CCNc1nc(C)cc(-c2nc(-c3cc(C)nc(CC)c3)no2)n1 [Example 9]
2,0.027 µM,CCNc1nc(C)cc(-c2nc(-c3cc(C)nc(Cl)c3)no2)n1 [Example 12]
3,0.0016 µM,Cc1cc(-c2noc(-c3cc(C)nc(NC(C)C)n3)n2)cc(C)n1 [Example 21]
4,0.046 µM,Cc1cc(-c2noc(-c3cc(C)nc(NC(C)C)n3)n2)cc(N(C)C)n1 [Example 25]
5,0.008 µM,Cc1cc(-c2noc(-c3cc(C)nc(NCC(C)C)n3)n2)cc(C)n1 [Example 27]
6,0.126 µM,COc1nc(C)cc(-c2nc(-c3cc(C)nc(C(C)C)c3)no2)n1 [Example 60]
7,0.0012 µM,"CCNc1nc(CC)cc(-c2nc(-c3cc(C)nc(C)c3)no2)n1 [Example 79, {4-[3-(2,6-Dimethyl-pyridin-4-yl)-[1,2,4]oxadiazol-5-yl]-6-ethyl-pyrimidin-2-yl}-ethyl-amine]"
8,0.03 µM,CNc1nc(C)cc(-c2noc(-c3cc(C)nc(CC(C)C)c3)n2)n1 [Example 81]
9,0.027 µM,COc1nc(C)cc(-c2noc(-c3cc(C)nc(CC(C)C)c3)n2)n1 [Example 94]
10,0.128 µM,Cc1cc(-c2nnc(-c3cc(C)nc(NC(C)C)n3)o2)cc(C)n1 [Example 100]
11,0.011 µM,CCCNc1nc(C)cc(-c2nc(-c3ccnc(C)c3)no2)n1 [Example 101]
12,0.0013 µM,Cc1cc(-c2noc(-c3cc(C)nc(N(C)C(C)C)n3)n2)cc(C)n1 [Example 109]
13,0.0021 µM,CCc1cc(-c2noc(-c3cc(C)nc(NC4CC4)n3)n2)cc(C)n1 [Example 116]
14,0.186 µM,CCc1cc(-c2noc(-c3cc(C)nc(N4CCCC4)n3)n2)cc(C)n1 [Example 118]
15,0.03 µM,CCCNc1nc(C)cc(-c2nc(-c3cc(C)nc(OC)c3)no2)n1 [Example 119]
16,0.039 µM,CCN(c1nc(C)cc(-c2nc(-c3cc(C)nc(OC)c3)no2)n1)C(C)C [Example 126]
17,0.044 µM,Cc1cc(-c2noc(-c3cc(C)nc(OC(C)C)n3)n2)cc(C)n1 [Example 132]
18,0.142 µM,CCc1cc(-c2noc(-c3cc(C)nc(OCC(C)C)n3)n2)cc(C)n1 [Example 135]
19,0.026 µM,Cc1cc(-c2noc(-c3cc(CC(C)C)nc(NC(C)C)n3)n2)cc(C)n1 [Example 142]
20,0.0007 µM,CCc1cc(-c2nc(-c3cc(C)nc(C)c3)no2)nc(NC(C)C)n1 [Example 147]
21,0.063 µM,CCc1cc(-c2nc(-c3cc(C)nc(C)c3)no2)nc(N(C)C)n1 [Example 149]
22,0.02 µM,Cc1cc(-c2nc(-c3ccc(C)c(C)n3)no2)nc(NC(C)C)n1 [Example 155]
23,0.053 µM,CCc1cnc(-c2noc(-c3cc(C)nc(NC(C)C)n3)n2)cc1C [Example 159]

row,EC50,SMILES
1,2.15 µM,CCN(c1nc(C)cc(-c2noc(-c3ccnc(C)c3)n2)n1)C(C)C [Example 166]
2,0.034 µM,CCCN(C)c1nc(C)cc(-c2noc(-c3cc(C)nc(C)c3)n2)n1 [Example 174]
3,0.011 µM,CCN(CC)c1nc(C)cc(-c2noc(-c3cc(C)nc(C)c3)n2)n1 [Example 177]
4,0.011 µM,CCCN(CC)c1nc(C)cc(-c2noc(-c3cc(C)nc(C)c3)n2)n1 [Example 178]
5,0.395 µM,CCCOc1nc(C)cc(-c2noc(-c3cc(C)nc(C)c3)n2)n1 [Example 182]
6,0.022 µM,CCCNc1nc(C)cc(-c2noc(-c3cc(C)nc(Cl)c3)n2)n1 [Example 185]
7,0.031 µM,Cc1cc(-c2nc(-c3cc(C)nc(NCC(C)C)n3)no2)cc(Cl)n1 [Example 187]
8,0.56 µM,CNc1nc(C)cc(-c2noc(-c3cc(C)nc(N(C)C)c3)n2)n1 [Example 188]
9,0.241 µM,Cc1cc(-c2nc(-c3cc(C)nc(N(C)C(C)C)n3)no2)cc(N(C)C)n1 [Example 196]
10,0.094 µM,CCN(c1nc(C)cc(-c2noc(-c3cc(C)nc(N(C)C)c3)n2)n1)C(C)C [Example 200]
11,1.14 µM,COc1nc(C)cc(-c2noc(-c3cc(C)nc(N(C)C)c3)n2)n1 [Example 201]
12,3.04 µM,Cc1cc(-c2nc(-c3cc(C)nc(OCC(C)C)n3)no2)cc(N(C)C)n1 [Example 205]
13,5.78 µM,CCCNc1nc(C)cc(-c2noc(-c3cnc(CC(C)C)c(C)c3)n2)n1 [Example 206]
14,0.795 µM,CCCN(CC)c1nc(C)cc(-c2noc(-c3cnc(CC(C)C)c(C)c3)n2)n1 [Example 211]
15,0.72 µM,Cc1cc(-c2noc(-c3cnc(OC(C)C)c(C)c3)n2)nc(NC(C)C)n1 [Example 214]
16,0.231 µM,CCc1cc(-c2nc(-c3cc(C)nc(NC)n3)no2)cnc1N(C)C(C)C [Example 220]
17,4.16 µM,CCc1cc(-c2nc(-c3cc(C)nc(NC(C)C)n3)no2)cnc1N(C)C(C)C [Example 223]
18,3.22 µM,CCc1cc(-c2nc(-c3cc(C)nc(N(C)C(C)C)n3)no2)cnc1N(C)C(C)C [Example 228]
19,0.19 µM,CCc1cc(-c2nc(-c3cc(C)nc(OC)n3)no2)cnc1N(C)C(C)C [Example 233]
20,0.402 µM,CNc1nc(C)cc(-c2noc(-c3cc(C)cc(CC(C)C)n3)n2)n1 [Example 238]
21,0.318 µM,Cc1cc(CC(C)C)nc(-c2nc(-c3cc(C)nc(N(C)C)n3)no2)c1 [Example 243]
22,0.201 µM,COc1nc(C)cc(-c2noc(-c3cc(C)cc(CC(C)C)n3)n2)n1 [Example 251]
23,0.331 µM,CCCNc1nc(C)cc(-c2nnc(-c3cc(C)nc(C)c3)s2)n1 [Example 261]

# Tested on: circulating lymphocytes
# Test: Assessment of in vivo efficacy: circulating lymphocytes after oral administration
# Conditions: 6 h after oral administration of 10 mg/kg to normotensive male Wistar rats, compared to vehicle-treated group; mean ± SEM
# Description: Assessment of In Vivo Efficacy
# The efficacy of the compounds of formula (I) is assessed by measuring the circulating lymphocytes after oral administration of 3 to 30 mg/kg of a compound of formula (I) to normotensive male Wistar rats. The animals are housed in climate-controlled conditions with a 12 h-light/dark cycle, and have free access to normal rat chow and drinking water. Blood is collected before and 3, 6 and 24 h after drug administration. Full blood is subjected to hematology using Advia Hematology system (Bayer Diagnostics, Zurich, Switzerland).
# All data are presented as mean±SEM. Statistical analyses are performed by analysis of variance (ANOVA) using Statistica (StatSoft) and the Student-Newman-Keuls procedure for multiple comparisons. The null hypothesis is rejected when p<0.05.
row,SMILES,Lymphocyte counts
1,Cc1cc(-c2noc(-c3cc(C)nc(NC(C)C)n3)n2)cc(C)n1 [Example 21],−71 ± 2%
2,"CCNc1nc(CC)cc(-c2nc(-c3cc(C)nc(C)c3)no2)n1 [Example 79, {4-[3-(2,6-Dimethyl-pyridin-4-yl)-[1,2,4]oxadiazol-5-yl]-6-ethyl-pyrimidin-2-yl}-ethyl-amine]",−70 ± 2%

# — patent US20110046170A1, “NOVEL PYRIMIDINE-PYRIDINE DERIVATIVES” (priority 2008, published 2011)
